Reference: patent US9115061B2, “Naphthalene-based inhibitors of anti-apoptotic proteins” (BURNHAM INSTITUTE FOR MEDICAL RESEARCH, priority 2007, dated 2015)
Read-outs that look alike come from different tables or passages of the source.

Legend:
BCL-XL [1] = target: T1, BCL-XL (Homo sapiens (Human), UniProt Q07817); assay: 1D 1H-NMR binding assay; conditions: 4-point-rating scale; compounds 200 μM, BCL-XL 25 μM; note: key: +++: Very Active; ++: Active; +: Mild; −: Weak
Procedure: By observing the aliphatic region of the spectra, binding could be readily detected due to chemical shift changes in active site methyl groups of Ile, Leu, Thr, Val or Ala (region between −0.8 and 0.3 ppm). All experiments were performed with a 600 MHz spectrometer Bruker Avance 600 equipped with four rf channels and z-axis pulse-field gradients.

Plasma stability = format: in vitro ADME, rat; conditions: rat plasma, 1 h, 37.5° C.
Procedure: A 20 μL aliquot of a 10 mM solution in DMSO of the test compound was added to […] of heparinized rat plasma (Lampire, P1-150N) to obtain a 100 μM final solution. The mixture was incubated for 1 h at 37.5° C. Aliquots of 100 μL were taken (0, 30 min, 1 h) and diluted with 200 μL of MeOH containing internal standard.

[2] = Liver microsomal stability; conditions: for Microsomal Stability (T = 1 hr): rat liver microsomes, 4 μM, 60 min; for microsomal stability compared to apogossypol: rat microsomal preparations
Procedure: Pooled rat liver microsomes (BD Biosciences, #452701) were preincubated with test compounds at 37.5° C. for 5 min in the absence of NADPH. The reaction was initiated by addition of NADPH and then incubated under the same conditions. […] One aliquot (100 μL) of the incubation mixture was withdrawn at 0, 15, 30, and 60 min and combined immediately with 200 μL of ACN/MeOH containing an internal standard. After mixing, the sample was centrifuged at approximately 13,000 rpm for 12 min. The supernatant was transferred into an autosampler vial and the amount of test compound was quantified using the Shimadzu LCMS 2010EV mass spectrometer. The change of the AUC (area under the curve) of the parent compound as function of time was used as a measure of microsomal stability.

[3] = PAMPA (parallel artificial membrane permeation assay); conditions: PAMPA, pH 7.2, 8 h
Procedure: PAMPA is parallel artificial membrane permeation assay. A 96-well microtiter plate (Millipore, # MSSACCEPTOR) was completely filled with aqueous buffer solution (pH 7.2) and covered with a microtiter filterplate (Millipore, # MAPBMN310). The hydrophobic filter material was impregnated with a 10% solution of hexadecane in hexane and the organic solvent was allowed to completely evaporate. Permeation studies were started by the transfer of 200 μL of a 100 μM test compound solution on top of the filterplate. In general phosphate buffer at pH 7.2 buffer was used. The maximum DMSO content of the stock solutions was <5%. In parallel, an equilibrium solution lacking a membrane was prepared using the exact concentrations and specifications but lacking the membrane. The concentrations of the acceptor and equilibrium solutions were determined using the Shimadzu LCMS-2010EV and AUC methods. The permeation of a compound through the membrane layer is described by the percentage permeation (% flux). The flux values were calculated considering the concentration of the acceptor compartment after 8 h and that of a reference well with the same concentration containing no membrane barrier.

H460 cell line = assay: Cell viability, ATP-LITE assay; format: cell-based, human
Procedure: (§1) The activity of the compounds against human cancer cell lines (PC3ML, H460, H1299, RS11846) were assessed by using the ATP-LITE assay (PerkinElmer). All cells were seeded in either F12 or RPMI1640 medium with 5 mM L-glutamine supplemented with 5% fetal bovine serum (Mediatech Inc.), penicillin and streptomycin (Omega). For maintenance, cells were cultured in 5% FBS. Cells plated into 96 well plates at varying initial densities depending on doubling time. H460 and H1299 plated at 2000 cells/well, A549 and PC3 at 3000 cells/well, and RS118456S at 10,000 cells/well. Compounds were diluted to final concentrations with 0.1% DMSO. Prior to dispensing compounds onto cells, fresh 5% media was placed into wells. Administration of compounds occurred 24 hours after seeding into the fresh media. Cell viability was evaluated using ATP-LITE reagent (PerkinElmer) after 72 hours of treatment. Data were normalized to the DMSO control-treated cells using Prism version 5.01 (Graphpad Software).

GST-BCL-XL ΔTM protein = GST-BCL-XL ΔTM protein (Homo sapiens (Human), UniProt Q07817); assay: Competitive fluorescence polarization assay (FITC-Bak BH3 peptide); format: binding
GST-BCL-XL ΔTM protein, sequence (Q07817 1-209): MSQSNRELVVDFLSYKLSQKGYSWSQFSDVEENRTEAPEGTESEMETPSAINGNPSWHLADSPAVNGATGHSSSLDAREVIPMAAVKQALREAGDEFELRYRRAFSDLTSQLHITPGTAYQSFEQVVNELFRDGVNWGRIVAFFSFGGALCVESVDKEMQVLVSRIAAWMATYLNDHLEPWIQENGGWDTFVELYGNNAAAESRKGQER
Procedure: For competitive binding assays, 100 nM GST-BCL-XL ΔTM protein was preincubated with the tested compound at varying concentrations in 47.5 μL PBS (pH=7.4) in 96-well black plates at room temperature for 10 min, then 2.5 μL of 100 nM FITC-labeled Bak BH3 peptide was added to produce a final volume of 50 μL. The wild-type and mutant Bak BH3 peptides were included in each assay plate as positive and negative controls, respectively.
(§2) IC50 was determined by fitting the experimental data to a sigmoidal dose-response nonlinear regression model (SigmaPlot 10.0.1, Systat Software, Inc., San Jose, Calif., USA). Data reported are mean of three independent experiments ±standard error (SE). […] Fluorescence polarization was measured after 10 min.

GST-BCL-2 = GST-BCL-2 (Homo sapiens (Human), UniProt P10415); assay: Fluorescence polarization assay (FITC-Bim BH3 peptide); format: binding; conditions: read-out: EC50 FPA BCL-2
GST-BCL-2, sequence (P10415 whole entry): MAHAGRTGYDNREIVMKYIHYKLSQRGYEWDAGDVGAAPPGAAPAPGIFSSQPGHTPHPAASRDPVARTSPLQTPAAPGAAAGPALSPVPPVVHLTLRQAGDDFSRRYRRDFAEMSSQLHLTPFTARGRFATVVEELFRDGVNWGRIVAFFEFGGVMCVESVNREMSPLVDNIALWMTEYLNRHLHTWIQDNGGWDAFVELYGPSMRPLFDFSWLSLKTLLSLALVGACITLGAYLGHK
Procedure: as §2, with “After 30 min incubation at room temperature, the polarization values in millipolarization units were measured at excitation/emission wavelengths of 480/535 nm with a multilabel plate reader (PerkinElmer). IC50” for “IC50”, “(SE). Performance of BCL-2 and Mcl-1 FPA are similar.” for “(SE).”

GST-Mcl-1 = GST-Mcl-1 (Homo sapiens (Human), UniProt Q07820); assay: as above; format: binding; conditions: read-out: EC50 FPA Mcl-1
GST-Mcl-1, sequence (Q07820 whole entry): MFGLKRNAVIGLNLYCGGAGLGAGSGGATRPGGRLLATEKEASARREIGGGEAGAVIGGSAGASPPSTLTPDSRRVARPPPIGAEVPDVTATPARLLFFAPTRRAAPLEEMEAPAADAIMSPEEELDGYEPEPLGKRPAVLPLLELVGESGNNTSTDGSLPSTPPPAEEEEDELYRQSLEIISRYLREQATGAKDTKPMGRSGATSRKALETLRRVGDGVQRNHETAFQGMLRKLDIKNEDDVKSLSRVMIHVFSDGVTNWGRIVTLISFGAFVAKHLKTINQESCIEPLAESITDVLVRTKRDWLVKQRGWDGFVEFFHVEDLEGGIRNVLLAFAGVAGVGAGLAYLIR
Procedure: as §2, with “After 30 min incubation at room temperature, the polarization values in millipolarization units were measured at excitation/emission wavelengths of 480/535 nm with a multilabel plate reader (PerkinElmer). IC50” for “IC50”

BCL-XL [4] = target: T1, BCL-XL; assay: Isothermal titration calorimetry (ITC); format: binding; conditions: 25° C., pH 7.4
Procedure: Titrations were performed using a VP-ITC or ITC200 calorimeter from Microcal (Northampton, Mass.). BCL-XL was used at concentrations between 25 and 100 μM in 20 mM sodium phosphate buffer (pH 7.4) and 5-10% DMSO. Titrants were used at concentrations 10-15× of the protein in the same buffer. Titrations were carried out at 25° C. Data were analyzed using Microcal Origin software provided by the ITC manufacturer (Microcal, Northampton, Mass.).

RS11846 cell line = assay: Apoptosis, Annexin V and propidium iodide assay; format: cell-based, human
Procedure: The apoptotic activity of the compounds against RS11846 cells was assessed by staining with Annexin V- and propidium iodide (PI). Lymphoma cell line, RS11846, was cultured in RPMI 1640 medium (Mediatech Inc., Herndon, Va. 20171) containing 10% fetal bovine serum (Mediatech Inc., Herndon, Va. 20171) and Penicillin/Streptomycin (Mediatech Inc., Herndon, Va. 20171). […] The percentage of viable cells was determined by FITC-Annexin V- and propidium iodide (PI)-labeling, using an Apoptosis Detection kit (BioVision Inc.), and analyzing stained cells by flow cytometry (FACSort; Bectin-Dickinson, Inc.; Mountain View, Calif.). Cells that were annexin-V-negative and PI-negative were considered viable.

PC3ML cells = assay: Cell viability, ATP-LITE assay; format: cell-based, human; conditions: 72 hours, ATP-LITE
Procedure: as §1

[5] = 1-2 days; read-out: RS11846 EC50 (Annexin V- and propidium iodide assay)

T1 sequence (Q07817 whole entry): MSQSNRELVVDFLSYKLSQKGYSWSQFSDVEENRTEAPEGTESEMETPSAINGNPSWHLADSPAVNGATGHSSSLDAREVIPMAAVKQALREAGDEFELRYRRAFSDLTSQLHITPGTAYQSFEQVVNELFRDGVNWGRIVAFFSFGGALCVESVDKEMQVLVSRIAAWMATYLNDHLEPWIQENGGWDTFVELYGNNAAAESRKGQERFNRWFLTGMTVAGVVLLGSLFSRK

| SMILES | 1D 1H-NMR Binding Assay (BCL-XL) (BCL-XL [1]) | Plasma Stability (T = 1 hr) (Plasma stability) [%] | Cell Permeability [3] | further results |
| --- | --- | --- | --- | --- |
| Cc1cc2cc(O)c(O)cc2c(O)c1-c1c(C)cc2cc(O)c(O)cc2c1O [Compound II, 3,3′-dimethyl-2,2′-binaphthyl-1,1′,6,6′,7,7′-hexaol] | + |  |  |  |
| Cc1cc2c(C(=O)C(C)C)c(O)c(O)cc2c(O)c1-c1c(C)cc2c(C(=O)C(C)C)c(O)c(O)cc2c1O [Compound III, 1,1′-(1,1′6,6′,7,7′-hexahydroxy-3,3′-dimethyl-2,2′-binaphthyl-5,5′-diyl)bis(2-methylpropan-1-one)] | ++ |  |  |  |
| Cc1cc2c(C(=O)c3ccc(-c4ccccc4)cc3)c(O)c(O)cc2c(O)c1-c1c(C)cc2c(C(=O)c3ccc(-c4ccccc4)cc3)c(O)c(O)cc2c1O [Compound IX, (1,1′,6,6′,7,7′-hexahydroxy-3,3′-dimethyl-2,2′-binaphthyl-5,51-diyl)bis(biphenyl-4-ylmethanone)] | − |  |  |  |
| CCCCC(CC)CC(=O)c1c(O)c(O)cc2c(O)c(-c3c(C)cc4c(C(=O)CC(CC)CCCC)c(O)c(O)cc4c3O)c(C)cc12 (centres unmarked) [Compound V, 1,1′-(1,1′,6,6′,7,7′-hexahydroxy-3,3′-dimethyl-2,2′-binaphthyl-5,5′-diyl)bis(3-ethylheptan-1-one)] | + |  |  |  |
| Cc1ccc(CC(=O)c2c(O)c(O)cc3c(O)c(-c4c(C)cc5c(C(=O)Cc6ccc(C)cc6)c(O)c(O)cc5c4O)c(C)cc23)cc1 [Compound XII, 1,1′-(1,1′,6,6′,7,7′-hexahydroxy-3,3′-dimethyl-2,2′-binaphthyl-5,5′-diyl)bis(2-p-tolylethanone)] |  | 72 | Low and Medium | EC50 (GST-BCL-2): 780 nM; EC50 (GST-Mcl-1): 1100 nM; times more potent than apogossypol, H460 EC50 (H460 cell line): 4-5 times; EC50 (PC3ML cells): 2500 nM; EC50 (RS11846 cell line; read-out: RS11846 EC50 (Annexin V- and propidium iodide assay); 1-2 days): 3000 nM |
| Cc1cc2c(C(=O)Cc3cccc(Br)c3)c(O)c(O)cc2c(O)c1-c1c(C)cc2c(C(=O)Cc3cccc(Br)c3)c(O)c(O)cc2c1O [Compound XIII, 1,1′-(1,1′,6,6′,7,7′-hexahydroxy-3,3′-dimethyl-2,2′-binaphthyl-5,5′-diyl)bis(2-(3-bromophenyl)ethanone)] | ++ |  |  |  |
| Cc1cc2c(C(=O)c3nc4ccccc4s3)c(O)c(O)cc2c(O)c1-c1c(C)cc2c(C(=O)c3nc4ccccc4s3)c(O)c(O)cc2c1O [Compound XVII, (1,1′,6,6′,7,7′-hexahydroxy-3,3′-dimethyl-2,2′-binaphthyl-5,5′-diyl)bis(benzo[d]thiazol-2-ylmethanone)] | ++ | 90 | Medium | IC50 (GST-BCL-XL ΔTM protein; read-out: FPA IC50 (BCL-XL)): 390 nM; Microsomal Stability (T = 1 hr) [2]: 68% |
| Cc1cc2c(C(=O)C(C)(C)C)c(O)c(O)cc2c(O)c1-c1c(C)cc2c(C(=O)C(C)(C)C)c(O)c(O)cc2c1O [Compound XVIII, 1,1′-(1,1′,6,6′,7,7′-hexahydroxy-3,3′-dimethyl-2,2′-binaphthyl-5,5′-diyl)bis(2,2-dimethylpropan-1-one)] | ++ | 90 | Medium | Microsomal Stability (T = 1 hr) [2]: 30%; microsomal stability compared to apogossypol [2]: degraded faster than apogossypol |
| CCCCC(=O)c1c(O)c(O)cc2c(O)c(-c3c(C)cc4c(C(=O)CCCC)c(O)c(O)cc4c3O)c(C)cc12 [Compound XX, 1,1′-(1,1′,6,6′,7,7′-hexahydroxy-3,3′-dimethyl-2,2′-binaphthyl-5,5′-diyl)dipentan-1-one] | + |  |  |  |

Further lines, with some results ahead:

| 1D 1H-NMR Binding Assay (BCL-XL) (BCL-XL [1]) | SMILES | Plasma Stability (T = 1 hr) (Plasma stability) [%] | Cell Permeability [3] | further results |
| --- | --- | --- | --- | --- |
| + | Cc1cc2c(C(=O)C3CCCC3)c(O)c(O)cc2c(O)c1-c1c(C)cc2c(C(=O)C3CCCC3)c(O)c(O)cc2c1O [Compound VI, (1,1′,6,6′,7,7′-hexahydroxy-3,3′-dimethyl-2,2′-binaphthyl-5,5′-diyl)bis(cyclopentylmethanone)] | 79 | Low | Microsomal Stability (T = 1 hr) [2]: 27%; microsomal stability compared to apogossypol [2]: degraded faster than apogossypol |
| + | Cc1cc2c(C(=O)c3ccccc3)c(O)c(O)cc2c(O)c1-c1c(C)cc2c(C(=O)c3ccccc3)c(O)c(O)cc2c1O [Compound VII, (1,1′,6,6′,7,7′-hexahydroxy-3,3′-dimethyl-2,2′-binaphthyl-5,5′-diyl)bis(phenylmethanone)] |  |  | EC50 (H460 cell line; 72 hours, ATP-LITE): 310 nM |
| + | Cc1cc2c(C(=O)c3cccc4ccccc34)c(O)c(O)cc2c(O)c1-c1c(C)cc2c(C(=O)c3cccc4ccccc34)c(O)c(O)cc2c1O [Compound VIII, (1,1′,6,6′,7,7′-hexahydroxy-3,3′-dimethyl-2,2′-binaphthyl-5,5′-diyl)bis(naphthalen-1-ylmethanone)] | 62 | Low | EC50 (GST-BCL-XL ΔTM protein; Table 3, read-out: EC50 FPA BCL-XL): 160 nM; EC50 (GST-BCL-2): 1900 nM; EC50 (GST-Mcl-1): 2200 nM; Kd (BCL-XL [4]): 2750 nM; EC50 (RS11846 cell line; [5]): 4200 nM; Microsomal Stability (T = 1 hr) [2]: 52% |
| − | Cc1cc2c(C(=O)c3ccc(C(C)(C)C)cc3)c(O)c(O)cc2c(O)c1-c1c(C)cc2c(C(=O)c3ccc(C(C)(C)C)cc3)c(O)c(O)cc2c1O [Compound X, (1,1′,6,6′,7,7′-hexahydroxy-3,3′-dimethyl-2,2′-binaphthyl-5,5′-diyl)bis((4-tert-butylphenyl)methanone)] |  |  |  |
| + | Cc1cc2c(C(=O)c3ccc(C(F)(F)F)cc3)c(O)c(O)cc2c(O)c1-c1c(C)cc2c(C(=O)c3ccc(C(F)(F)F)cc3)c(O)c(O)cc2c1O [Compound XI, (1,1′,6,6′,7,7′-hexahydroxy-3,3′-dimethyl-2,2′-binaphthyl-5,5′-diyl)bis((4-(trifluoromethyl)phenyl)methanone)] |  |  | EC50 (RS11846 cell line; [5]): 3800 nM |
| ++ | Cc1cc2c(C(=O)CC3CCCCC3)c(O)c(O)cc2c(O)c1-c1c(C)cc2c(C(=O)CC3CCCCC3)c(O)c(O)cc2c1O [Compound XV, 1,1′-(1,1′,6,6′,7,7′-hexahydroxy-3,3′-dimethyl-2,2′-binaphthyl-5,5′-diyl)bis(2-cyclohexylethanone)] |  |  |  |
| + | Cc1cc2c(C(=O)CCc3ccc(F)cc3)c(O)c(O)cc2c(O)c1-c1c(C)cc2c(C(=O)CCc3ccc(F)cc3)c(O)c(O)cc2c1O [Compound XVI, 1,1′-(1,1′,6,6′,7,7′-hexahydroxy-3,3′-dimethyl-2,2′-binaphthyl-5,5′-diyl)bis(3-(4-fluorophenyl)propan-1-one)] |  |  |  |
